According to the NIST ThermoML archive (doi:10.1016/j.jct.2017.10.014):
± gives the expanded uncertainty stated by the source.

Conditions: Liquid; for mass density: 100 kPa, Vibrating tube method; for viscosity: 101.33 kPa, Concentric cylinders viscometry

## CC(C)(CO)[C@@H](O)C(=O)NCCCO [d-Panthenol]
293.15 K
  mass density: 1165.18 ± 1.9 kg/m3
  viscosity: 527287 ± 66000 mPa·s
298.15 K
  mass density: 1161.68 ± 1.9 kg/m3
  viscosity: 261544 ± 30000 mPa·s
303.15 K
  mass density: 1158.27 ± 1.9 kg/m3
  viscosity: 125673 ± 13000 mPa·s
308.15 K
  mass density: 1154.96 ± 1.9 kg/m3
  viscosity: 68487 ± 6700 mPa·s
313.15 K
  mass density: 1151.46 ± 1.9 kg/m3
  viscosity: 37252 ± 3300 mPa·s
